Assays:
[1] = tested on: patients with symptomatic MDD; test: Cognitive and Physical Functioning Questionnaire (CPFQ), Phase 1B study; type: in vivo, human; settings: FIG. 4
[2] = tested on: patients with symptomatic MDD; test: qEEG pharmacodynamic measurement; type: in vivo, human; settings: pre vs 6 hours post-dose on Day 14 and Day 28; prominent in left posterior temporal and parietal regions; lower HFα with placebo
Description: A double-blind, placebo-controlled, multiple-ascending-dose study employing the compound of formula (1) was performed in patients with symptomatic MDD. Twenty-four subjects were recruited, with their diagnosis and illness severity confirmed through an independent, remote SAFER interview (Targum, S. D., et al., CNS Neurosci. Ther. (2008) 14:2-9) from the Massachusetts General Hospital (MGH) Clinical Trials Network and Institute (CTNI) raters. Each patient underwent a screening for eligibility (Day −37 to Day −6 or −3) and eligible patients were admitted into the unit on Day −5 to complete their wash-out and be reconfirmed for eligibility and for baseline assessments. The patients received daily dosing of formula (1) or placebo for 28 days starting on Day 1 and were followed for safety, pharmacokinetics (PK) and pharmacodynamics (PD) until discharge. […]
In addition to safety, pharmacokinetic and the behavioral ratings scales described in Example 2, qEEG measurements were obtained 6 hours post-dose on Days 14 and 28 for 20 minutes at rest. EEGs were recorded using 19-standard International 10/20 System scalp locations plus electromyography (EMG) and eye movement monitoring. Digital EEGs recorded using Cadwell Laboratories instrumentation, were reviewed to identify the presence of physiological and instrumentation prior to analyses. […]

SMILES: CC(C)CCNc1ncccc1C(=O)N1CCN(Cc2ccccc2)CC1 [formula (1)]
- CPFQ value ([1]; 40 mg/day, control group (n=2) 3.75): 2.8
- CPFQ value ([1]; 120 mg/day, controls (n=2) 3.3): 2.6
- qEEG high frequency α (HFα), amplitude and coherence measures [2]: increased HFα
